Reference: patent US5726162A (priority 1996, dated 1998)
Where two headings read alike, the source gives them in different places.

Tests used:
[1] = test system: fungal inoculum; assay: organism not typed; format: cell-based; conditions: read-out: % growth inhibition
[2] = test system: Magnaporthe grisea (Pyricularia oryzae); assay: whole plant or invertebrate; format: in vivo, Magnaporthe grisea (Pyricularia oryzae) on M201 rice plants; conditions: Pyricularia oryzae, 144 h, read-out: % Control RB
[3] = test system: Thanatephorus cucumeris (Rhizoctonia solani); assay: In vivo test b) Rice Sheath Blight (RSB), 24 hour preapplication protectant, % control; conditions: read-out: % Control RSB
Experimental: Compounds were tested at 200 ppm as a twenty-four hour preapplication protectant test prior to inoculation.
b) Rice Sheath Blight (RSB)
Thanatephorus cucumeris (Rhizoctonia solani) mycelia were grown for six days in potato dextrose broth in shake culture. Drained mycelial mats were blended with an approximately equal weight of rice flour and five parts water. This slurry was dispensed onto the soil surface of pots containing rice seedlings previously treated with experimental compounds. The plants were placed in a mist chamber at 25°-28° C. for 48 hours. Following two more days at 25° C. and 70-90% relative humidity the plants were evaluated for percent disease control compared to check plants.

[4] = test system: Candida albicans; assay: Activity against Candida albicans in microtiter plates, % control of growth; format: cell-based
Experimental: The activity against Candida albicans was determined using the following test protocol.
Conidia and mycelium from the Candida albicans culture maintained on potato dextrose agar plates were lightly scraped off into yeast extract-dextrose broth (YDB) so that mostly conidia was used as inoculum. The conidial suspsension was strained through a double layer of cheesecloth to remove mycelial clumps. The inoculum mixture was placed in microtiter plates using a 12-tipped pipet. 175 microliters were placed in each well of the microliter plates and the plates were placed in the refrigerator overnight. There were two replications.
The compounds to be tested were dissolved in 1:1 acetone:methanol and 100 ppm of the compound solution were placed in a well of the prepared microtiter plates.
The microtiter plates were incubated for 7 days at room temperature after addition of the compounds. Percent control was visually estimated using a microtiter plate reading mirror. Readings were made at 1, 2, 3, and/or 7 days after treatment.

[5] = test system: fungal mycelium; assay: organism not typed; format: cell-based; conditions: read-out: % growth inhibition
[6] = 24 h, 1 day after treatment, read-out: % control of growth +1
[7] = 48 h, 2 days after treatment, read-out: % control of growth +2
[8] = 72 h, 3 days after treatment, read-out: % control of growth +3

SMILES | pest or weed control at 200 ppm [2] [%] | pest or weed control at 200 ppm ([3]; 200 ppm, protectant) [%] | inhibition at 100 ppm [1] [%] | other results
CC#CCN1N=C(c2ccc(Cl)cc2)CCC1=O [Compound 1] | 90 | 0 | – | inhibition at 5 ppm [1]: 92.7%
COc1ccc(C2=NN(CCCO)C(=O)CC2)cc1 [Compound 2] | 0 | 0 | 0 | –
CCC(O)CN1N=C(c2ccc(Cl)c(Cl)c2)CCC1=O (centres unmarked) [Compound 3] | 0 | 0 | 53.6 | –
CCC(O)CN1N=C(c2ccc(Cl)cc2)CCC1=O (centres unmarked) [Compound 4] | 0 | 0 | 26.7 | –
O=C1CCC(c2ccc(Cl)c(Cl)c2)=NN1CCCO [Compound 5] | 0 | 50 | 75 | –
C#CCN1N=C(c2ccc(Cl)cc2)CCC1=O [Compound 6, 6-(4-chlorophenyl)-2-propargyl-4,5-dihydropyridazinone] | 0 | 0 | 91.5 | –
CCCCN1N=C(c2ccc(Cl)cc2)CCC1=O [Compound 7] | 0 | 0 | 94.4 | –
CC=CCN1N=C(c2ccc(Cl)cc2)CCC1=O [Compound 8] | 0 | 0 | 96.2 | –
CC#CCN1N=C(c2ccccc2)CCC1=O [Compound 9] | 0 | 0 | 94.4 | –
O=C1CCC(c2ccc(Cl)cc2)=NN1Cc1ccccc1 [Compound 10] | – | – | 100 | pest or weed control at 200 ppm [3]: 80%
CC#CCN1N=C(c2ccc(OC)cc2)CCC1=O [Compound 11, 6-(4-methoxyphenyl)-2-(2'-butynyl)-4,5-dihydropyridazinone] | 0 | 0 | – | inhibition at 10 ppm [1]: 87.7%
CC#CCN1N=C(c2ccc(F)cc2)CCC1=O [Compound 13] | 50 | 50 | – | inhibition at 10 ppm [1]: 87%
CC(C)(C)N1N=C(c2ccc(Cl)cc2)CCC1=O [Compound 15, 6-(4-chlorophenyl)-4,5-dihydro-2-t-butylpyridazinone] | 0 | 50 | – | inhibition at 50 ppm [1]: 37.1%
O=C1CCC(c2ccc(Cl)cc2)=NN1C(=O)c1ccccc1 [Compound 16] | 0 | 50 | – | inhibition at 50 ppm [1]: 12.7%
CC(C)C#CCN1N=C(c2ccc(Cl)cc2)CCC1=O [Compound 34] | 90 | – | – | inhibition at 10 ppm [1]: 100%; inhibition of growth at 100 ppm [4, 6]: 100%; inhibition of growth at 100 ppm [4, 7]: 100%; inhibition of growth at 100 ppm [4, 8]: 100%
C=CC#CCN1N=C(c2ccc(Cl)cc2)CCC1=O [Compound 56, 6-(4-chlorophenyl)-2-(3'-vinyl-2'-propynyl)-4,5-dihydropyridazinone] | 100 | – | – | inhibition at 1 ppm [1]: 100%; inhibition of growth at 100 ppm [4, 6]: 100%; inhibition of growth at 100 ppm [4, 7]: 100%; inhibition of growth at 100 ppm [4, 8]: 100%
O=C1CCC(c2ccc(Cl)cc2)=NN1CC#CCF [Compound 76, 6-(4-chlorophenyl)-2-(4'-fluoro-2'-butynyl)-4,5-dihydropyridazinone] | 0 | – | – | inhibition at 10 ppm [5]: 100%; inhibition of growth at 100 ppm [4, 6]: 100%; inhibition of growth at 100 ppm [4, 7]: 100%; inhibition of growth at 100 ppm [4, 8]: 100%
CCC#CCN1N=C(c2ccc(-c3ccccc3)cc2)CCC1=O [Compound 79] | 100 | 75 | – | inhibition at 50 ppm [5]: 17%
CCC#CCN1N=C(c2ccc(C)cc2)CCC1=O [Compound 80] | 99 | – | – | inhibition at 2.5 ppm [5]: 100%; pest or weed control at 200 ppm [3]: 0%
O=C1CCC(c2ccc(Cl)cc2)=NN1CC#CC(F)F [Compound 89] | 95 | 0 | – | inhibition at 10 ppm [5]: 100%
CCC#CCN1N=C(c2cc(F)c(Cl)c(F)c2)CCC1=O [Compound 90] | 0 | 95 | – | inhibition at 1 ppm [5]: 100%
